PubChem BioAssay AID192 (DTP/NCI, 2004)
Toxic doses and inconclusive results are not listed. Rule for the calls: active = survival T/C of 150% or more; inactive = T/C below 125% in these data. Square brackets hold non-standard residues; d marks the D form. Peptide text beside a SMILES is read from it. * marks the point of attachment. Cbz = O=C(OCc1ccccc1)*; Nva = CCC[CH](N)C(=O)O

System: BDF1 mice, B16 melanoma ip, median survival T/C
Experiment: NCI In Vivo Anticancer Drug Screen. Data for tumor model B16 Melanoma (intraperitoneal) in B6D2F1 (BDF1) mice
Details: endpoint: median survival time, higher = longer survival
In short: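 Transplantable tumor model; survival or tumor size measured; reported as T/C, treated over vehicle control.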

[1] = dose: 25.0 mg/kg/injection, schedule: Q01DX009 (ip), vehicle: saline with Tween-80
[2] = dose: 50.0 mg/kg/injection, schedule: Q01DX009 (ip), vehicle: saline with Tween-80
[3] = dose: 100.0 mg/kg/injection, schedule: Q01DX009 (ip), vehicle: saline with Tween-80
[4] = dose: 200.0 mg/kg/injection, schedule: Q01DX009 (ip), vehicle: saline with Tween-80
[5] = dose: 100.0 mg/kg/injection, schedule: Q01DX009 (ip), vehicle: Klucel (hydroxypropylcellulose) (HPC)
[6] = dose: 200.0 mg/kg/injection, schedule: Q01DX009 (ip), vehicle: Klucel (hydroxypropylcellulose) (HPC)
[7] = dose: 25.0 mg/kg/injection, schedule: Q01DX009 (ip), vehicle: Klucel (hydroxypropylcellulose) (HPC)
[8] = dose: 50.0 mg/kg/injection, schedule: Q01DX009 (ip), vehicle: Klucel (hydroxypropylcellulose) (HPC)
[9] = dose: 12.5 mg/kg/injection, schedule: Q01DX009 (ip), vehicle: Klucel (hydroxypropylcellulose) (HPC)
[10] = dose: 400.0 mg/kg/injection, schedule: Q01DX009 (ip), vehicle: Klucel (hydroxypropylcellulose) (HPC)

Measured: T/C

ClC1(Cl)C2C=CC=CCC21 (centres undefined)
inactive: dose: 50.0 mg/kg/injection, schedule: Q04DX003 (ip), vehicle: other 107 % of control | dose: 100.0 mg/kg/injection, schedule: Q04DX003 (ip), vehicle: other 102 % of control | dose: 200.0 mg/kg/injection, schedule: Q04DX003 (ip), vehicle: other 86 % of control

C/C=C(/C)C(=O)O[C@H]1CC[N+]2([O-])CC=C(COC(=O)[C@@](O)([C@H](C)OC)C(C)(C)O)[C@H]12 (some centres undefined)
inactive: dose: 25.0 mg/kg/injection, schedule: Q01DX009 (ip), vehicle: saline 95 % of control | dose: 50.0 mg/kg/injection, schedule: Q01DX009 (ip), vehicle: saline 97 % of control | dose: 100.0 mg/kg/injection, schedule: Q01DX009 (ip), vehicle: saline 107 % of control | dose: 200.0 mg/kg/injection, schedule: Q01DX009 (ip), vehicle: saline 100 % of control

Cc1c2ccncc2cc2c1[nH]c1ccccc12
inactive: [1] 119 % of control | [2] 121 % of control | [3] 122 % of control

C#CC(C)(C)OCC(CCl)OC(N)=O (centres undefined)
inactive: dose: 12.5 mg/kg/injection, schedule: Q01DX009 (ip), vehicle: saline with Tween-80 91 % of control | [1] 100 % of control | [2] 104 % of control | [3] 93 % of control | [4] 95 % of control

O=C(O)c1ccc2c(c1)C(=O)c1ccccc1S2(=O)=O
inactive: [5] 92 % of control | [6] 93 % of control

CN(C)CCCNc1cc(O)c2c(c1O)C(=O)c1ccccc1C2=O
inactive: dose: 50.0 mg/kg/injection, schedule: Q01DX009 (ip), vehicle: water 116 % of control | dose: 100.0 mg/kg/injection, schedule: Q01DX009 (ip), vehicle: water 107 % of control

C[NH-].C[NH-].C[NH-].C[NH-].[Cl][Rh][Cl]
inactive: [7] 114 % of control | [8] 120 % of control | [5] 105 % of control

O=C(N/N=C\c1ccc(N(CCCl)CCCl)cc1)c1cccnc1
inactive: dose: 100.0 mg/kg/injection, schedule: Q01DX009 (ip), vehicle: gum acacia 91 % of control | dose: 200.0 mg/kg/injection, schedule: Q01DX009 (ip), vehicle: gum acacia 102 % of control | dose: 400.0 mg/kg/injection, schedule: Q01DX009 (ip), vehicle: gum acacia 102 % of control

NC(=O)C(Cl)(Cl)Cl
inactive: [3] 105 % of control | [4] 96 % of control | dose: 400.0 mg/kg/injection, schedule: Q01DX009 (ip), vehicle: saline with Tween-80 98 % of control

CC1=Nc2ccc([N+](=O)[O-])cc2N=C(C)C1
inactive: dose: 37.5 mg/kg/injection, schedule: Q01DX009 (ip), vehicle: saline 97 % of control | dose: 75.0 mg/kg/injection, schedule: Q01DX009 (ip), vehicle: saline 101 % of control | dose: 150.0 mg/kg/injection, schedule: Q01DX009 (ip), vehicle: saline 89 % of control

CCCCCCCCCCCCCCCC[N+](C)(C)C
inactive: dose: 0.5 mg/kg/injection, schedule: Q04DX003 (ip), vehicle: saline 95 % of control | dose: 1.0 mg/kg/injection, schedule: Q01DX009 (ip), vehicle: saline 93 % of control | dose: 1.0 mg/kg/injection, schedule: Q04DX003 (ip), vehicle: saline 95 % of control | dose: 1.25 mg/kg/injection, schedule: Q01DX009 (ip), vehicle: saline with Tween-80 102 % of control | dose: 2.0 mg/kg/injection, schedule: Q01DX009 (ip), vehicle: saline 93 % of control | dose: 2.0 mg/kg/injection, schedule: Q04DX003 (ip), vehicle: saline 95 % of control | dose: 2.5 mg/kg/injection, schedule: Q01DX009 (ip), vehicle: saline with Tween-80 107 % of control | dose: 2.75 mg/kg/injection, schedule: Q01DX009 (ip), vehicle: saline 93 % of control | dose: 4.0 mg/kg/injection, schedule: Q01DX009 (ip), vehicle: saline 91 % of control | dose: 5.0 mg/kg/injection, schedule: Q01DX009 (ip), vehicle: saline with Tween-80 91 % of control | dose: 5.5 mg/kg/injection, schedule: Q01DX009 (ip), vehicle: saline 93 % of control

O=C1CCCC2C1C1(O)CCC2(O)c2cccc(O)c21 (centres undefined)
inactive: dose: 1.56 mg/kg/injection, schedule: Q01DX009 (ip), vehicle: saline 90 % of control | dose: 3.12 mg/kg/injection, schedule: Q01DX009 (ip), vehicle: saline 95 % of control | dose: 3.12 mg/kg/injection, schedule: Q04DX003 (ip), vehicle: saline 93 % of control | dose: 6.25 mg/kg/injection, schedule: Q01DX009 (ip), vehicle: saline 93 % of control | dose: 6.25 mg/kg/injection, schedule: Q04DX003 (ip), vehicle: saline 91 % of control | [9] 95 % of control | dose: 12.5 mg/kg/injection, schedule: Q04DX003 (ip), vehicle: saline 91 % of control | dose: 18.0 mg/kg/injection, schedule: Q04DX003 (ip), vehicle: saline 105 % of control | dose: 28.0 mg/kg/injection, schedule: Q04DX003 (ip), vehicle: saline 103 % of control

O=CNC(Cc1ccccc1)Cc1ccccc1
inactive: dose: 5.0 mg/kg/injection, schedule: Q01DX009 (ip), vehicle: Klucel (hydroxypropylcellulose) (HPC) 96 % of control | dose: 10.0 mg/kg/injection, schedule: Q01DX009 (ip), vehicle: Klucel (hydroxypropylcellulose) (HPC) 100 % of control | dose: 20.0 mg/kg/injection, schedule: Q01DX009 (ip), vehicle: Klucel (hydroxypropylcellulose) (HPC) 100 % of control

Cc1ccc(NS(=O)(=O)c2ccc(F)cc2)c(C)c1
inactive: [5] 106 % of control | [6] 110 % of control | [10] 93 % of control

N#CC(c1ccccc1)N1CCCCC1 (centres undefined)
inactive: [8] 93 % of control | [5] 90 % of control

Cc1sc2ccc(Cl)cc2[n+]1CCC(=O)O
inactive: dose: 100.0 mg/kg/injection, schedule: Q04DX003 (ip), vehicle: saline with Tween-80 105 % of control | dose: 200.0 mg/kg/injection, schedule: Q04DX003 (ip), vehicle: saline with Tween-80 107 % of control | dose: 400.0 mg/kg/injection, schedule: Q04DX003 (ip), vehicle: saline with Tween-80 105 % of control

CCCC(NC(=O)C(Cc1ccccc1)NC(=O)OCc1ccccc1)C(=O)O (stereo not drawn) (Cbz-Phe-[Nva]-OH; configuration not given here)
inactive: [2] 95 % of control | [3] 92 % of control

COC(=O)c1ccccc1C=C(c1ccc([N+](=O)[O-])cc1)c1ccc([N+](=O)[O-])cc1
inactive: [2] 97 % of control | [3] 113 % of control | [4] 91 % of control

COC(=O)C1CC(C)(C)N(C)C1(C)C (centres undefined)
inactive: [8] 93 % of control | [5] 94 % of control

CC1(C)[C@H]2CC[C@@]1(C)C(=O)[C@H]2[N+](=O)[O-]
inactive: [5] 114 % of control | [6] 111 % of control | [10] 108 % of control

CN(C)c1c(-c2ccccc2)cc(-c2ccccc2)[nH]c1=O
inactive: [2] 92 % of control | [3] 86 % of control

CC(C)CCC(C)C1CCC2C3CC([N+](=O)[O-])=C4CC(OC(=O)c5ccccc5)CCC4(C)C3CCC12C (centres undefined)
inactive: [5] 105 % of control | [6] 110 % of control | [10] 105 % of control

Cc1cc(CCl)c(C)c(Br)c1C
inactive: dose: 6.25 mg/kg/injection, schedule: Q01DX009 (ip), vehicle: Klucel (hydroxypropylcellulose) (HPC) 97 % of control | [9] 119 % of control | [7] 105 % of control | [8] 105 % of control

CCCN(C)/N=N/c1[nH]ncc1C(N)=O
inactive: dose: 17.0 mg/kg/injection, schedule: Q01DX009 (ip), vehicle: saline with Tween-80 114 % of control | dose: 37.0 mg/kg/injection, schedule: Q01DX009 (ip), vehicle: saline with Tween-80 111 % of control | [2] 121 % of control
